Our source for the Kd and stoichiometry N values is paper PMC5469503 (PLoS Pathogens, 2017).

Assay [1] deals with T1, V1 subcomplex of the V-ATPase (Saccharomyces cerevisiae, UniProt P16140+P17255).
T1 construct: gene VMA1
Nature of the assay: fluorescence titration (TNP-ATP emission). The following applies: pH 7.9, 10.0 °C, 25 mM Tris-HCl, 0.15 M NaCl, 1 mM MgCl2, 0.5 mM DTT, 0.25 μM V1; nucleotide site.

The target of assay [2] is V-ATPase from S. cerevisiae, intact, detergent solubilized (A3B3CDE3FG3Hac8c'c''def), 3xFLAG on the A-subunit (S. cerevisiae) (UniProt P16140). Briefly: cryo-EM structure.

For orientation: Kd means a measure of binding affinity in units of concentration. Substance “2',3'-O-(2,4,6-trinitrophenyl) adenosine 5'-triphosphate [TNP-ATP]” gave a Kd in assay [1] of 160 ± 50 nM. One may read the stoichiometry N as the number of molecules, sites or subunits per partner or assembly. “SidK, full length (residues 1 to 573) (natural protein)” returned a stoichiometry N in assay [2] of 3.
